The values that follow come from patent US20210087163A1, “PHENOXY THIOPHENE SULFONAMIDES AND OTHER COMPOUNDS FOR USE AS INHIBITORS OF BACTERIAL GLUCURONIDASE” (NORTH CAROLINA CENTRAL UNIVERSITY, priority 2010, published 2021).

As a reminder, the IC50 is the point on the concentration scale where inhibition reaches its midpoint. By viability is commonly meant a per cent measure of how many cells are alive, often set against a control.

Entries after “also recorded” stand apart in the source; their conditions may differ. Where two headings read alike, the source gives them in different places.

Assay [1] has as its target E. coli β-glucuronidase (Escherichia coli, UniProt P05804). Put plainly: biochemical.
The target of assay [2] is endogenous GUS activity in whole E. coli cells (Escherichia coli, UniProt P05804). Description: GUS cell based assay (whole E. coli cells, 4MUG). The settings on record: for potency shift, less potent in the cell-based assay compared to the enzyme assay: less potent in cells. The protocol: An E. coli cell based assay was developed in order to assess the activity of these drugs against whole cells, instead of purified enzyme. We took advantage of the well-known specificity and sensitivity of the 4MUG substrate to detect GUS activity in E. coli cells. This assay mimicked the enzyme assay in format, with the GUS enzyme replaced by live log-phase E. coli cells and the assay incubated for a longer time (2 hr) to detect GUS activity in these un-modified cells.
Cultures of E col (DH5α) carrying the empty expression vector pCMV5 were grown over night in LB containing carbenicilin (50 μM) and then used to initiate fresh LB/carbenicillin cultures adjusted to an initial OD of 0.1. These cultures were allowed to reach an OD of 0.6 and then washed twice with 50 mM HEPES, pH 7.4 containing carbenicillin 50 μM, and concentrated by centrifugation to an OD of 1 for use in the assay. The GUS cell based assay was performed in an identical manner as the enzyme assay except the Triton X-100 was left out of the assay buffer, the E. coli cells replaced the enzyme and the reaction was allowed to proceed for 2 hrs at 37° C. The resulting data was analyzed as outlined for the enzyme assay.

Assay [3] addresses T1, mammalian GUS purified from Bovine taurus liver (Bos taurus, UniProt A3KMY8).
T1 sequence (A3KMY8 1-652): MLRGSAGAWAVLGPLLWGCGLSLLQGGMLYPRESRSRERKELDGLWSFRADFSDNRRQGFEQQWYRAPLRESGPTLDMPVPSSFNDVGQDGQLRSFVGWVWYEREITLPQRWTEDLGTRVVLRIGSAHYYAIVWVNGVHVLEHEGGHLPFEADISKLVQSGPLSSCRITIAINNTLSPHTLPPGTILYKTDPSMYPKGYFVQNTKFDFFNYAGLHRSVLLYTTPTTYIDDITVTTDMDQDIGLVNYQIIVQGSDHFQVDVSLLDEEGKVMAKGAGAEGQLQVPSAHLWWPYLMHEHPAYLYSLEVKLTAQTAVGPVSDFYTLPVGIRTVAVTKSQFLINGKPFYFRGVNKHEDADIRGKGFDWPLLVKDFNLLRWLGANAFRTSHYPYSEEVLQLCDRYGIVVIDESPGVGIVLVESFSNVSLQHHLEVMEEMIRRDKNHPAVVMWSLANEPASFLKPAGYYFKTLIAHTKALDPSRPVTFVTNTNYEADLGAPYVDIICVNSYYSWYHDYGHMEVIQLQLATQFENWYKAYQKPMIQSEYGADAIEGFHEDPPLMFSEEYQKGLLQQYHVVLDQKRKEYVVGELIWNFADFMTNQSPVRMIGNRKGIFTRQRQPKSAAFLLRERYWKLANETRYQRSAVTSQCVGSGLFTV
Description: Bovine taurus GUS enzyme assay. The format is biochemical.

The target in assay [4] is E. coli GUS (Escherichia coli, UniProt P05804). Description: GUS enzyme assay, manual version (purified E. coli GUS, 4MUG). The format is biochemical. On the procedure:
The semi-automated GUS high throughput enzyme assay was performed as previously described and was used to screen the Prestwick Chemical Collection. The follow-up studies were performed manually in a similar manner with the exception of plate type and volumes, as briefly outlined here. Compound stock solutions were made in 100% DMSO. […] Final concentrations in the assembled assay were 50 mM HEPES. pH 7.4, 0.01% Triton X-100, 1% DMSO. […] The enzyme reaction was allowed to proceed for 20 minutes at 23° C., and was terminated by the addition of 40 μl of a 1M sodium carbonate solution. […] Fluorescence data, expressed in relative fluorescence units (RFU), were normalized to DMSO (100% activity) and “no enzyme” (0% activity) controls as maximum and minimum responses, respectively. The Bovine taurus GUS enzyme assay was performed in an identical manner except Bovine taurus GUS enzyme (1 nM) was used instead of bacterial GUS. The IC50 values and Hill slopes were calculated from concentration response data using GraphPad Prism software (GraphPad Software Inc., La Jolla, Calif.) employing either four-parameter or a three parameter (fixed bottom) curve fit.

In assay [5] the test system is E. coli cells. Put plainly: microbe, parasite or virus in culture. The settings on record: Escherichia coli, 2 h.
In assay [6] the target is monoamine oxidase. The settings on record: read-out: reported in vitro IC50 for inhibiting monoamine oxidase; rat brain homogenates; cited from earlier work.
Assay [7] has as its system MAO. The settings on record: read-out: reported IC50 for MAO; depending on subclass of MAO-A or MAO-B, or total activity; cited from earlier work.
Setting [8] is: running text, read-out: IC50 in the E. coli cell-based assay.
Where [9] appears, read: running text, read-out: average IC50 in the E. coli GUS enzyme assay.

Chain of endogenous GUS activity in whole E. coli cells (P05804 whole entry): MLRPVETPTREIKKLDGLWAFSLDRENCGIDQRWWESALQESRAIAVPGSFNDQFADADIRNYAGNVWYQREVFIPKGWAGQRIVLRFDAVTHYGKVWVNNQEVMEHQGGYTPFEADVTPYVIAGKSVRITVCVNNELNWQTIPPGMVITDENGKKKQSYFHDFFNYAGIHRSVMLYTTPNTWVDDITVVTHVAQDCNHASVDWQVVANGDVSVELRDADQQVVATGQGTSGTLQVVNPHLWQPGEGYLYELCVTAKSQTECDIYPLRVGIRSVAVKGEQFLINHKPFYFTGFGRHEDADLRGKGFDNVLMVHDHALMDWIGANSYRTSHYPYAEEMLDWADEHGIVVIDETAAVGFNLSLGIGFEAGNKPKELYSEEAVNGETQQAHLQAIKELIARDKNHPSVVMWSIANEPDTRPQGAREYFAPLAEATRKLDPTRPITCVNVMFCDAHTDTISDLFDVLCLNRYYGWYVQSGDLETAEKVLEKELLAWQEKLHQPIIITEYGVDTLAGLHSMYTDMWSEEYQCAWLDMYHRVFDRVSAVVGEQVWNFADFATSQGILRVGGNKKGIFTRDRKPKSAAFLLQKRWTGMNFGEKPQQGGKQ
Chain of E. coli GUS (P05804 whole entry): as above
Chain of E. coli β-glucuronidase (P05804 whole entry): as above

For `CC1(C)Cc2cccc(Oc3ccc(S(=O)(=O)NCc4cccc5ccccc45)s3)c2O1` [BRITE-354502], in assay [1] (read-out: IC50, β-Glucuronidase Inhibitory activity of phenoxythiophene sulfonamides), the 50% inhibitory concentration (IC50) came out at 965000 nM.

On to `Cc1cc(C(=O)NNCc2ccccc2)no1` [Isocarboxazid, isocarboxazid], for which the half-maximal inhibitory concentration (IC50) in assay [2] (setting [8]) amounted to 336 ± 120 nM; in assay [4] (average of at least three determinations, read-out: E. coli GUS Enzyme Assay IC50 ± SD), 128 ± 56 nM. The “activity against purified mammalian GUS, in words” value in assay [3] is recorded as “no significant activity; also recorded: do not inhibit”.

On to `NC[C@H]1O[C@H](O[C@H]2[C@H](O)[C@@H](O[C@H]3O[C@H](CO)[C@@H](O)[C@H](N)[C@H]3O)[C@H](N)C[C@@H]2N)[C@H](O)[C@@H](O)[C@@H]1O` [Kanamycin], for which, in assay [5] (read-out: reduction of activity in the viability assay), the inhibition at 50 µg/mL was over 90%.

`OC(c1cc(C(F)(F)F)nc2c(C(F)(F)F)cccc12)C1CCCCN1` (stereo not drawn) [Mefloquine, mefloquine]: the entries for the “potency shift, less potent in the cell-based assay compared to the enzyme assay” value in assay [2] and in assay [2] (listed as mefloquine) were “over 4.9 fold” and 5 fold, respectively. Besides, the IC50 amounted to 6000 nM in assay [2] (read-out: IC50 in the E. coli cell-based assay) and 1210 nM in assay [4] (listed as mefloquine hydrochloride, read-out: average IC50 in the E. coli GUS enzyme assay). Moreover, in assay [5] (read-out: viability of E. coli), the viability at 10 µM is 100%.

As to `O=C(CCNNC(=O)c1ccncc1)NCc1ccccc1` [Nialamide, nialamide], the IC50 is 2600 to 13000 nM in assay [6]; 17 nM in assay [2] (setting [8]); 74800 nM in assay [3] (average of at least three determinations, read-out: B. taurus GUS Enzyme Assay IC50 ± SD); about 75000 nM in assay [3] (running text, read-out: IC50 against purified mammalian GUS); 71 nM in assay [4] (setting [9]). Moreover, the “potency shift, more potent in the cell-based assay compared to the E. coli GUS enzyme assay” value in assay [2] (more potent in cells) turned out to be 4 fold. In addition, the “activity against purified mammalian GUS, in words” value in assay [3] was “no significant activity; also recorded: do not inhibit”.

Consider `NNCCc1ccccc1` [Phenelzine, phenelzine], for which the IC50 was 7120 nM in assay [2] (average of at least three determinations, 2 hrs at 37° C., read-out: E. coli Cell-Based Assay IC50 ± SD); 70 to 900 nM in assay [7]; 2280 nM in assay [4] (running text, listed as phenelzine, read-out: average IC50 in the E. coli GUS enzyme assay); 2200 nM in assay [4] (setting [9]). For the same compound, the “potency shift, less potent in the cell-based assay compared to the enzyme assay” value in assay [2] was found to be 2.6 fold. Also, in assay [1] (10 µM), the “inhibition in the Prestwick collection screen” value is over 50%. The inhibition at 10 µM in assay [1] (read-out: inhibition in the Prestwick collection screen) turned out to be 62%.
